Patent publication US20240041042A1, “1-(PYRIDYL)-5-AZINYLPYRAZOLE DERIVATIVES, AND THEIR USE FOR CONTROL OF UNDESIRED PLANT GROWTH” (Bayer Aktiengesellschaft, priority 2020, published 2024)

Experiments:
Type in all cases: in vivo
[1] = test system: Amaranthus retroflexus (AMARE); test: Pre-emergence herbicidal action against AMARE; details: visual scoring after about 3 weeks vs untreated controls
Outline: (§1)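 Read-out is visual percent damage relative to untreated pots, with 100% meaning dead plants and 0% meaning no difference, assessed roughly three weeks after treatment. Compounds were applied pre-emergence to the covering soil at up to 320 g/ha.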

[2] = test system: Viola tricolor (VIOTR); test: Pre-emergence herbicidal action against VIOTR
Outline: as §1

[3] = test system: Matricaria inodora (MATIN); test: Pre-emergence herbicidal action against MATIN; details: dosage 320 g/ha
Outline: as §1

[4] = test system: Echinochloa crus-galli (ECHCG); test: Post-emergence herbicidal action against ECHCG
Outline: (§2)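 Doses of 320 g/ha or lower, suffixes a, b and c marking different dosages, were applied post-emergence at the one-leaf stage in 600 l/ha water with 0.5% additive. Damage was assessed visually after about 3 weeks in the greenhouse.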

[5] = test system: Oryza sativa (ORYSA); details: crop plant compatibility, 80 g/ha, effect in comparison to untreated controls
Outline: (§3)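 Effects were read visually as % versus untreated controls (0% = no effect, 100% = death) about 3 weeks post-treatment. Application was a post-emergence spray at the one-leaf stage of WP/EC formulations with 0.5% additive at 600 l/ha. Different dosages are denoted a, b and c.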

[6] = test system: Alopecurus myosuroides (ALOMY); test: Pre-emergence herbicidal action against ALOMY; details: scored visually after about 3 weeks, 100% = plants have died
Outline: as §1

[7] = test system: Lolium rigidum (LOLRI); test: Post-emergence herbicidal action against LOLRI
Outline: as §2

[8] = test system: Matricaria inodora (MATIN); test: Post-emergence herbicidal action against MATIN; details: dosage 320 g/ha
Procedure: Seeds of monocotyledonous and dicotyledonous weeds and crop plants are placed in sandy loam in plastic or organic planting pots, covered with soil and cultivated in a greenhouse under controlled growth conditions. 2 to 3 weeks after sowing, the test plants are treated at the one-leaf stage. The compounds of the invention, formulated in the form of wettable powders (WP) or as emulsion concentrates (EC), are then sprayed onto the green parts of the plants as aqueous suspension or emulsion with addition of 0.5% additive at a water application rate of 600 l/ha (converted). After the test plants have been kept in the greenhouse under optimum growth conditions for about 3 weeks, the activity of the preparations is rated visually in comparison to untreated controls. For example, 100% activity=the plants have died, 0% activity=like control plants.
Tables B1 to B13 below show the effects of selected compounds of the general formula (I) according to Table 1 on various harmful plants and at an application rate corresponding to 320 g/ha or lower, which were obtained by the experimental procedure mentioned above. The appendices “a”, “b” and “c” give differentiation by dosage used with otherwise the same harmful plants tested.

[9] = test system: Setaria viridis (SETVI); test: Post-emergence herbicidal action against SETVI
Outline: as §2

[10] = test system: Amaranthus retroflexus (AMARE); test: Post-emergence herbicidal action against AMARE
Outline: as §2

[11] = test system: Avena fatua (AVEFA); test: Pre-emergence herbicidal action against AVEFA; details: visual scoring after about 3 weeks vs untreated controls
Outline: as §1

[12] = test system: Verconica persica (VERPE); test: Pre-emergence herbicidal action against VERPE
Outline: as §1

[13] = test system: Verconica persica (VERPE); test: Post-emergence herbicidal action against VERPE
Outline: as §2

[14] = test system: Pharbitis purpurea (PHBPU); test: Pre-emergence herbicidal action against PHBPU
Outline: as §1

[15] = test system: Avena fatua (AVEFA); test: Post-emergence herbicidal action against AVEFA; details: visual rating about 3 weeks after treatment
Outline: as §2

[16] = test system: Polygonum convolvulus (POLCO); test: Post-emergence herbicidal action against POLCO
Outline: as §2

[17] = test system: Polygonum convolvulus (POLCO); test: Pre-emergence herbicidal action against POLCO
Outline: as §1

[18] = test system: Pharbitis purpurea (PHBPU); test: Post-emergence herbicidal action against PHBPU; details: dosage 320 g/ha
Outline: as §2

[19] = test system: Echinochloa crus-galli (ECHCG); test: Pre-emergence herbicidal action against ECHCG
Outline: as §1

[20] = test system: Lolium rigidum (LOLRI); test: Pre-emergence herbicidal action against LOLRI
Outline: as §1

[21] = test system: Setaria viridis (SETVI); test: Pre-emergence herbicidal action against SETVI
Outline: as §1

[22] = test system: Alopecurus myosuroides (ALOMY); test: Post-emergence herbicidal action against ALOMY; details: visual rating about 3 weeks after treatment vs untreated controls (100% = plants have died, 0% = like control plants)
Outline: as §2

[23] = test system: Zea mays (ZEAMX); details: crop plant compatibility, 80 g/ha, effect vs untreated controls
Outline: as §3

[24] = test system: Viola tricolor (VIOTR); test: Post-emergence herbicidal action against VIOTR
Outline: as §2

[25] = 80 g/ha, visual rating about 3 weeks after treatment vs untreated controls (100% = plants have died, 0% = like control plants)
[26] = 320 g/ha, visual rating about 3 weeks after treatment

Compound	Pre-emergence action against AMARE in % ([1]; 80 g/ha) [%]	Pre-emergence action against AMARE in % ([1]; 320 g/ha) [%]	Pre-emergence action against VIOTR in % ([2]; 320 g/ha, Viola tricolor) [%]	Pre-emergence action against MATIN in % [3] [%]	Post-emergence action against ECHCG in % ([4]; dosage 320 g/ha) [%]	Post-emergence action against ORYSA in % [5] [%]	Pre-emergence action against ALOMY ([6]; 320 g/ha) [%]	Post-emergence action against LOLRI in % ([7]; dosage 320 g/ha) [%]	Post-emergence action against MATIN in % [8] [%]	Post-emergence action against SETVI in % ([9]; dosage 80 g/ha) [%]	Post-emergence action against SETVI in % ([9]; dosage 320 g/ha) [%]	Post-emergence action against AMARE in % [10, 25] [%]	Post-emergence action against AMARE in % [10, 26] [%]	Pre-emergence action against AVEFA in % ([11]; 320 g/ha) [%]	Pre-emergence action against VERPE in % ([12]; dosage 320 g/ha) [%]	Post-emergence action against VERPE in % ([13]; 320 g/ha, VERPE) [%]	Pre-emergence action against PHBPU in % ([14]; dosage 320 g/ha) [%]	Post-emergence action against AVEFA in % ([15]; 320 g/ha) [%]	Post-emergence action against POLCO in % ([16]; dosage 80 g/ha) [%]	Post-emergence action against POLCO in % ([16]; dosage 320 g/ha) [%]	also measured
COC(=O)[C@H](C)NC(=O)COc1nn(-c2ccccn2)c(-c2ccc(F)nc2)c1Cl [Example I-87]	90	100	80	90	80	0	100	80	80	80	80	80	80	90	90	90	90	90	80	80	Pre-emergence action against ALOMY ([6]; 80 g/ha): 90%; Pre-emergence action against AVEFA in % ([11]; 80 g/ha): 80%; Pre-emergence action against VERPE in % ([12]; dosage 80 g/ha): 80%; Post-emergence action against VERPE in % ([13]; dosage 80 g/ha): 80%; Post-emergence action against AVEFA in % ([15]; 80 g/ha): 80%; Pre-emergence action against POLCO in % ([17]; dosage 80 g/ha): 80%; Pre-emergence action against POLCO in % ([17]; dosage 320 g/ha): 90%; Post-emergence action against PHBPU in % [18]: 90%; Pre-emergence action against ECHCG in % ([19]; dosage 80 g/ha): 100%; Pre-emergence action against ECHCG in % ([19]; dosage 320 g/ha): 100%; Pre-emergence action against LOLRI in % ([20]; dosage 320 g/ha): 100%; Pre-emergence action against SETVI in % ([21]; dosage 80 g/ha): 90%; Pre-emergence action against SETVI in % ([21]; dosage 320 g/ha): 100%; Post-emergence action against ALOMY in % ([22]; 80 g/ha): 80%; Post-emergence action against ALOMY in % ([22]; 320 g/ha): 90%
CCOC(=O)COc1nn(-c2ncccc2C)c(-c2ccc(F)nc2)c1Br [Example I-321]	100	100	100	100	90	0	100	100	80	90	90	80	80	90	100	90	90	90	80	90	Pre-emergence action against VIOTR in % ([2]; dosage 80 g/ha): 90%; Post-emergence action against ECHCG in % ([4]; dosage 80 g/ha): 90%; Post-emergence action against ZEAMX in % [23]: 0%; Post-emergence action against LOLRI in % ([7]; dosage 80 g/ha): 100%; Post-emergence action against VIOTR in % ([24]; 80 g/ha): 80%; Post-emergence action against VIOTR in % ([24]; 320 g/ha): 80%; Pre-emergence action against PHBPU in % ([14]; dosage 80 g/ha): 80%; Post-emergence action against AVEFA in % ([15]; 80 g/ha): 90%; Pre-emergence action against POLCO in % ([17]; dosage 80 g/ha): 90%; Pre-emergence action against POLCO in % ([17]; dosage 320 g/ha): 100%; Post-emergence action against PHBPU in % [18]: 90%; Pre-emergence action against ECHCG in % ([19]; dosage 80 g/ha): 100%; Pre-emergence action against ECHCG in % ([19]; dosage 320 g/ha): 100%; Pre-emergence action against LOLRI in % ([20]; dosage 80 g/ha): 100%; Pre-emergence action against LOLRI in % ([20]; dosage 320 g/ha): 100%; Pre-emergence action against SETVI in % ([21]; dosage 320 g/ha): 100%; Post-emergence action against ALOMY in % ([22]; 80 g/ha): 90%; Post-emergence action against ALOMY in % ([22]; 320 g/ha): 100%
C[C@@H](Oc1nn(-c2ccccn2)c(-c2ccc(F)nc2)c1Cl)C(=O)NCC(=O)O [Example I-338]	100	100	100	80	80	0	100	90	90	90	90	80	80	90	100	90	80	90	80	80	Pre-emergence action against VIOTR in % ([2]; dosage 80 g/ha): 100%; Post-emergence action against ZEAMX in % [23]: 0%; Pre-emergence action against ALOMY ([6]; 80 g/ha): 100%; Pre-emergence action against AVEFA in % ([11]; 80 g/ha): 90%; Post-emergence action against VIOTR in % ([24]; 320 g/ha): 80%; Pre-emergence action against POLCO in % ([17]; dosage 80 g/ha): 100%; Pre-emergence action against POLCO in % ([17]; dosage 320 g/ha): 100%; Pre-emergence action against ECHCG in % ([19]; dosage 80 g/ha): 90%; Pre-emergence action against ECHCG in % ([19]; dosage 320 g/ha): 100%; Pre-emergence action against LOLRI in % ([20]; dosage 80 g/ha): 100%; Pre-emergence action against LOLRI in % ([20]; dosage 320 g/ha): 100%; Pre-emergence action against SETVI in % ([21]; dosage 80 g/ha): 100%; Pre-emergence action against SETVI in % ([21]; dosage 320 g/ha): 100%; Post-emergence action against ALOMY in % ([22]; 320 g/ha): 90%
